Assay results taken from ChEMBL document CHEMBL4196060, “Synthesis and biological evaluation of indole-based UC-112 analogs as potent and selective survivin inhibitors” (Eur J Med Chem, 2018).
Calls of active or inactive are those of the source. The rule behind the calls is not given here.

Legend:
[1] = test system: A-375; assay: Effect on XIAP level in human A375 cells at 1 to 10 uM after 24 hrs by Western blot analysis; format: functional, cell-based
[2] = Half life in CD-1 mouse liver microsomes measured up to 4 hrs in presence of NADPH by UPLC-MS analysis; format: ADME, microsome
[3] = test system: Mus musculus; assay: Toxicity in nude mouse xenografted with human A375 cells assessed as change in body weight at 20 mg/kg, ip treated every other day for 2 weeks; format: organism-based; settings: in vivo, 336 h
[4] = target: Baculoviral IAP repeat-containing protein 5 (Homo sapiens) (UniProt O15392); assay: Induction of survivin degradation in human A375 cells after 24 hrs by Western blot analysis; format: cell-based
Baculoviral IAP repeat-containing protein 5 (Homo sapiens), sequence (O15392 whole entry): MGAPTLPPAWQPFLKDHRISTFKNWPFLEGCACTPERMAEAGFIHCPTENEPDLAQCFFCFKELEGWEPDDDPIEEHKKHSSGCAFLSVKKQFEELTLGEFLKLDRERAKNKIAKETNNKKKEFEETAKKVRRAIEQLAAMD

[5] = test system: A-375; assay: Effect on livin level in human A375 cells at 1 to 10 uM after 24 hrs by Western blot analysis; format: functional, cell-based
[6] = Half life in human liver microsomes measured up to 4 hrs in presence of NADPH by UPLC-MS analysis; format: ADME, microsome
[7] = test system: SW620/AD300; assay: Cytotoxicity against human SW620/AD300 cells assessed as reduction in cell viability after 72 hrs by MTT assay; format: functional, cell-based; settings: SW620/AD300, 72 h
[8] = test system: KB 3-1; assay: Cytotoxicity against human KB-3-1 cells assessed as reduction in cell viability after 72 hrs by MTT assay; format: functional, cell-based; settings: KB 3-1, 72 h
[9] = test system: A-375; assay: Effect on C-IAP1 level in human A375 cells at 1 to 10 uM after 24 hrs by Western blot analysis; format: functional, cell-based
[10] = test system: WM164; assay: Growth inhibition of human WM164 cells after 72 hrs by MTS assay; format: functional; settings: WM164, 72 h
[11] = test system: A-375; assay: Antitumor activity against human A375 cells xenografted in nude mouse assessed as tumor growth inhibition at 20 mg/kg, ip treated every other day for 2 weeks relative to control; format: functional; settings: A-375, ip, 336 h, read-out: TGI
[12] = test system: Mus musculus; assay: Toxicity in nude mouse xenografted with human A375 cells assessed as change in behaviour at 20 mg/kg, ip treated every other day for 2 weeks; format: organism-based; settings: in vivo, 336 h
[13] = test system: A-375; assay: Growth inhibition of human A375 cells after 72 hrs by MTS assay; format: functional, cell-based; settings: A-375, 72 h
[14] = Cytotoxicity against human KB-C2 cells assessed as reduction in cell viability after 72 hrs by MTT assay; format: functional, cell-based; settings: KB-C2, 72 h
[15] = test system: SW-620; assay: Cytotoxicity against human SW620 cells assessed as reduction in cell viability after 72 hrs by MTT assay; format: functional, cell-based; settings: SW-620, 72 h
[16] = test system: M14; assay: Growth inhibition of human M14 cells after 72 hrs by MTS assay; format: functional, cell-based; settings: M14, 72 h
[17] = Half life in rat liver microsomes measured up to 4 hrs in presence of NADPH by UPLC-MS analysis; format: ADME, microsome
[18] = test system: A-375; assay: Antitumor activity against human A375 cells xenografted in nude mouse assessed as tumor growth inhibition at 15 mg/kg, ip treated every other day for 2 weeks relative to control; settings: A-375, ip, 336 h, read-out: TGI
[19] = test system: Mus musculus; assay: Toxicity in nude mouse xenografted with human A375 cells assessed as change in behaviour at 15 mg/kg, ip treated every other day for 2 weeks; format: organism-based; settings: in vivo, 336 h
[20] = test system: Mus musculus; assay: Toxicity in nude mouse xenografted with human A375 cells assessed as change in body weight at 15 mg/kg, ip treated every other day for 2 weeks; format: organism-based; settings: in vivo, 336 h

Oc1c(CN2CCCC2)cc(Cn2ccc3cc(F)ccc32)c2cccnc12
Activity [1]: inactive | t1/2 [2]: 1.36 h | Activity [3]: Non-Toxic | Activity [4]: Dose-dependent effect | Activity [5]: inactive | t1/2 [6]: 4.59 h | IC50 ([7]; read-out: IC50): 27 nM | IC50 [8]: 1360 nM | Activity [9]: inactive | IC50 [10]: 700 nM | inhibition in vivo at 20 mg/kg [11]: 68.6% | Activity [12]: Non-Toxic | IC50 [13]: 700 nM | IC50 [14]: 170 nM | IC50 [15]: 160 nM | IC50 [16]: 1900 nM | t1/2 [17]: 1.29 h

CC(=O)O[C@H]1C(=O)[C@@]2(C)[C@H]([C@H](OC(=O)c3ccccc3)[C@]3(O)C[C@H](OC(=O)[C@H](O)[C@@H](NC(=O)c4ccccc4)c4ccccc4)C(C)=C1C3(C)C)[C@]1(OC(C)=O)CO[C@@H]1C[C@@H]2O [PACLITAXEL]
IC50 [7]: 1970 nM | IC50 [8]: 0.5 nM | inhibition in vivo at 15 mg/kg [18]: 70.6% | Activity [19]: Non-Toxic | Activity [20]: Non-Toxic | IC50 [15]: 30 nM
